In patent US20130344008A1, “NONCARIOUS MATERIAL AND ANTICARIOUS AGENT CONTAINING RARE SUGAR” (priority 2006, published 2013):

Assays:
S. mutans strain JCM5075 [1] = experiment: Example 1: optical density and pH of S. mutans JCM5075 cultures in BHI broth with rare sugars, with or without sucrose; format: cell-based, Streptococcus mutans; settings: for pH 0 hour later / pH 6 hours later / pH 8 hours later / pH 12 hours later / pH 24 hours later / Optical density (OD) 12 hours later / suppression of OD increase compared with no addition: BHI broth; for Optical density (OD) 12 hours later: OD600; for suppression of the pH reduction: also with 1% sucrose addition; for suppression of the pH reduction / pH change 24 hours later (in words): FIG. 3; for suppression of OD increase compared with no addition: FIG. 2 / Table 1; for pH change 24 hours later (in words): 1% sucrose, or 10% Xylitol+1% sucrose, or 10% fructose+1% sucrose
Source text: S. mutans strains characteristically form insoluble glucan on addition of sucrose, to generate acids and reduce the pH of the culture medium, which is considered to cause decalcification of teeth on dental surface to form decayed teeth (the reason why the strains are designated bacteria causing decayed teeth). JCM 5075 of S. mutans strains and the Brain Heart Infusion (BHI) broth were used to assay the optical density (the increase of the number of the bacterial cells) and the pH change in individual rare sugar solutions with or without sucrose added. As the rare sugars, there were used D-fructose, L-fructose, D-sorbose, L-sorbose, D-psicose, L-psicose, D-tagatose and L-tagatose. The rare sugars used were supplied from the Rare Sugar Research Center, the National University Corporation Kagawa University.
The strain JCM5075 thawed from −80° C. stock was cultured for 48 hours, and was adjusted to OD 0.3. 100 μl of the resulting culture was added to each 2-ml portion of the BHI broths under individual conditions, to assay the optical density and the pH 24 hours later (observation with naked eyes and absorbance: OD600).
After collecting a part of the liquid culture and centrifuging the culture, the pH of the resulting supernatant was measured with a pH meter. The results are shown in Table 2 (0, 6, 8, 12 and 24 hours after the addition of the bacteria to the BHI broth) and FIG. 3.

[2] = test system: S. mutans strain MT 8148 (JCM5175); experiment: Example 2: bacterial growth (OD 660 nm) and pH of S. mutans culture in phenol red broth with 1% test substance; format: cell-based, Streptococcus mutans; settings: PRB broth, 37° C., 48 hours later; for OD: bacterial growth, absorbance at 660 nm
Method: D-Psicose and L-psicose were used to assay the actions thereof against S. mutans. D-Psicose and L-psicose were supplied from the Rare Sugar Research Center, the National University Corporation Kagawa University. The S. mutans strain MT 8148 (JCM5175) was plated in a Brain Heart Infusion broth supplemented with agar for culturing at 37° C. for 48 hours. The liquid culture was inoculated in a fresh Brain Heart Infusion broth, for culturing at 37° C. for 24 hours. The liquid culture was inoculated in a phenol red broth (PRB broth) containing a test substance at 1%, for culturing at 37° C.; the bacterial growth (absorbance at 660 nm: OD) and the pH were assayed 48 hours later. Asa control, glucose, fructose, sucrose and Xylitol were used. After culturing for a given period of time, additionally, the optical density of apart of the liquid culture was measured with an absorptiometer (OD 660 nm).

[3] = test system: S. mutans strain MT 8148 (JCM5175); experiment: Example 4: cariostatic test with D-psicose and catechin, pH of culture in PRB broth; format: cell-based, Streptococcus mutans; settings: for pH: PRB broth, 20 hours later
Method: A cariostatic test with D-psicose was carried out. Additionally, the effect of catechins added was also examined. D-Psicose was supplied from the Rare Sugar Research Center, the National University Corporation Kagawa University. As the catechin, Polyphenon 70A of Mitsui Norin Co., Ltd. was used. The S. mutans strain MT 8148 (JCM5175) was plated in a Brain Heart Infusion broth supplemented with agar, for culturing at 37° C. for 48 hours. Further, the resulting liquid culture was inoculated in a fresh Brain Heart Infusion broth, for culturing at 37° C. for 24 hours. The liquid preculture was inoculated in a phenol red broth (PRB broth) containing sugars and catechins at the following concentrations for culturing at 37° C.; 20 hours later, the pH was measured. As a control, sucrose was used.

[4] = test system: S. mutans strain (JCM5075); experiment: Example 3: pH of S. mutans culture in BHI broth with test substance after 48-hour culturing; format: cell-based, Streptococcus mutans; settings: for pH: BHI broth, after 48-hour culturing
Method: Allitol and D-sorbose were used to assay the actions thereof against S. mutans. Allitol and D-sorbose were supplied from the Rare Sugar Research Center, the National University Corporation Kagawa University. The S. mutans strain (JCM5075) was plated in a Brain Heart Infusion broth containing a 10% test substance, to measure the pH of the liquid culture after 48-hour culturing. As a control, 1% sucrose and 10% Xylitol were used.

caries = settings: cited from earlier work
S. mutans strain JCM5075 [5] = experiment: Reference Example: formation of insoluble glucan with S. mutans, naked-eye observation; format: cell-based, Streptococcus mutans; settings: sucrose added, BHI broth, anaerobic conditions, FIG. 1
Method: S. mutans strains characteristically form insoluble glucan on addition of sucrose, to reduce the pH of the culture medium, which is considered to cause decalcification of dental surface to form decayed teeth (the reason why the strains are designated bacteria causing decayed teeth). The S. mutans strain JCM5075 was plated in a Brain Heart Infusion (BHI) broth, for culturing under anaerobic conditions, to visually determine the bacterial growth (potency for forming insoluble glucan: optical density) with naked eyes.

[6] = 10% test substance + 1% sucrose

SMILES	pH 0 hour later (S. mutans strain JCM5075 [1]; 5% test substance + 1% sucrose)	pH 6 hours later (S. mutans strain JCM5075 [1]; 5% test substance + 1% sucrose)	pH 8 hours later (S. mutans strain JCM5075 [1]; 5% test substance + 1% sucrose)	pH 12 hours later (S. mutans strain JCM5075 [1]; 5% test substance + 1% sucrose)	pH 24 hours later (S. mutans strain JCM5075 [1]; 5% test substance + 1% sucrose)	pH 0 hour later (S. mutans strain JCM5075 [1]; 5% test substance, no sucrose)	pH 6 hours later (S. mutans strain JCM5075 [1]; 5% test substance, no sucrose)	pH 8 hours later (S. mutans strain JCM5075 [1]; 5% test substance, no sucrose)	pH 12 hours later (S. mutans strain JCM5075 [1]; 5% test substance, no sucrose)	pH 24 hours later (S. mutans strain JCM5075 [1]; 5% test substance, no sucrose)	pH 0 hour later (S. mutans strain JCM5075 [1]; [6])	pH 6 hours later (S. mutans strain JCM5075 [1]; [6])	pH 8 hours later (S. mutans strain JCM5075 [1]; [6])	pH 12 hours later (S. mutans strain JCM5075 [1]; [6])	pH 24 hours later (S. mutans strain JCM5075 [1]; [6])	Optical density (OD) 12 hours later (S. mutans strain JCM5075 [1]; 10% test substance)	pH 0 hour later (S. mutans strain JCM5075 [1]; 10% test substance, no sucrose)	pH 6 hours later (S. mutans strain JCM5075 [1]; 10% test substance, no sucrose)	pH 8 hours later (S. mutans strain JCM5075 [1]; 10% test substance, no sucrose)	pH 12 hours later (S. mutans strain JCM5075 [1]; 10% test substance, no sucrose)	other results
O=C(CO)[C@H](O)[C@H](O)[C@H](O)CO [D-psicose]	7.4	7.3	7.2	7.2	6.4	7.4	7.3	7.2	7.2	7.0	7.3	7.2	7.2	7.2	7.1	0.158	7.3	7.2	7.2	7.2	pH 24 hours later (S. mutans strain JCM5075 [1]; 10% test substance, no sucrose): 7.2; suppression of the pH reduction (S. mutans strain JCM5075 [1]; 24 hours later): most highly suppressed the pH reduction; suppression of OD increase compared with no addition (S. mutans strain JCM5075 [1]): suppression of OD increase was observed; pH [2]: 5.9; OD [2]: 0.02; pH ([3]; 3.3% test substance + 0.25% sucrose): 4.4; pH ([3]; 5.0% test substance + 0.25% sucrose): 5.5; action of suppressing the pH reduction in a culture medium with addition of sucrose ([3]; D-psicose at a concentration of 5%, 0.25% sucrose): exerted an action of suppressing the pH reduction
O=C(CO)[C@H](O)[C@@H](O)[C@H](O)CO [D-sorbose]	7.3	7.2	7.2	7.2	5.0	7.4	7.2	7.2	7.2	5.5	7.3	7.2	7.2	7.2	6.9	0.102	7.3	7.2	7.2	7.2	pH 24 hours later (S. mutans strain JCM5075 [1]; 10% test substance, no sucrose): 6.9; suppression of the pH reduction (S. mutans strain JCM5075 [1]; 24 hours later): pH reduction was suppressed; suppression of OD increase compared with no addition (S. mutans strain JCM5075 [1]): suppression of OD increase was observed; assimilability with the S. mutans strain ([4]; 10% test substance, 48-hour culturing): low assimilability; pH ([4]; 10% test substance): 5.0
OC[C@@H](O)[C@H](O)[C@@H](O)CO [Xylitol, reference compound]	7.3	7.2	7.2	7.1	4.9	7.3	7.2	7.2	7.2	6.4	7.3	7.2	7.2	7.2	5.1	0.046	7.4	7.2	7.2	7.2	pH change 24 hours later (in words) (S. mutans strain JCM5075 [1]): highly inclined to acidity; pH 24 hours later (S. mutans strain JCM5075 [1]; 10% test substance, no sucrose): 6.5; pH ([4]; 10% test substance): 6.0
Oc1cc(O)c2c(c1)O[C@H](c1cc(O)c(O)c(O)c1)[C@@H](O)C2 [gallocatechin]																					effective concentration against caries in the test system (caries): 125 µg/mL
OC[C@H]1O[C@@](CO)(O[C@H]2O[C@H](CO)[C@@H](O)[C@H](O)[C@H]2O)[C@@H](O)[C@@H]1O [sucrose, reference compound]																					pH 0 hour later (S. mutans strain JCM5075 [1]; 1% sucrose alone): 7.4; pH 6 hours later (S. mutans strain JCM5075 [1]; 1% sucrose alone): 7.2; pH 8 hours later (S. mutans strain JCM5075 [1]; 1% sucrose alone): 7.2; pH 12 hours later (S. mutans strain JCM5075 [1]; 1% sucrose alone): 6.7; pH 24 hours later (S. mutans strain JCM5075 [1]; 1% sucrose alone): 4.7; pH change 24 hours later (in words) (S. mutans strain JCM5075 [1]): highly inclined to acidity; Optical density (OD) 12 hours later (S. mutans strain JCM5075 [1]; 1% test substance): 0.060; precipitation of bacterial masses (insoluble glucan) under observation with naked eyes (S. mutans strain JCM5075 [1]; addition of 1% sucrose, addition of 10% D-fructose, 24 hours later): caused the precipitation of bacterial masses (insoluble glucan); pH [2]: 3.9; OD [2]: 0.14; pH ([4]; 1% sucrose (control)): 4.0; pH ([3]; 0.25% sucrose alone, 37° C.): 4.5; formation of insoluble glucan observed with naked eyes (S. mutans strain JCM5075 [5]): formed insoluble glucan
